Source: US20250270182A1, “Composition Comprising an Antimicrobial Agent and an Alkyl Ketal Ester Compound” (Symrise AG, priority 2022, published 2025)

Columns and labels:
Experiment in all cases: Minimum Inhibitory Concentration (MIC) test, growth inhibition in 96 well plates
Type in all cases: cell-based
Aspergillus brasiliensis = conditions: lowest concentration with complete growth inhibition, optical density, substances solved in DMSO; for MIC: Aspergillus brasiliensis, read-out: MIC in ppm Aspergillus brasiliensis
Description: (§1) The Minimum Inhibitory Concentration (MIC) test is a test on growth inhibition. The estimation of MICs is executed in 96 well plates. Through the comparison of bacterial growth with positive and negative controls via optical density (OD), different concentrations of given test substances are evaluated. Bacteria were cultivated under adjusted conditions based on information of the German Collection of Microorganisms and Cell Cultures (DSMZ) and stored in 10% or 50% glycerol prior to use. Afterwards, the following method was applied: Growth medium (according to microorganism) was added to each well of the microplate. Then, the test-substances, solved in DMSO, were added in different concentrations, positive controls (water controls only with medium), solvent controls (DMSO controls only with medium), and negative controls (benchmarks according to organism). Finally, the microorganisms were added in a concentration of 1 to 6×10^6 CFU/ml (CFU=colony forming units). The incubation of the microplates was carried out at appropriate conditions. According to the resulting growth, substance concentrations are labelled either as inhibiting or not and MIC is defined as the lowest concentration where a complete growth inhibition is visible. Experiments at concentration limits (highest concentration labelled as growth and lowest concentration labelled as inhibiting) are performed at least twice. The synergistic activity of NxtSolv 320 (Ethyl propylene glycol acetal levulinate) and Nxt Solv 420 (Ethyl glycerine acetal levulinate) in combination with different antimicrobial compounds was determined by measuring the Minimum Inhibitory Concentrations (MIC) according to the method as described above. […] In special occasions, intermediate dilution steps were performed to further improve the MIC resolution. […] To verify that the tested combinations act synergistically against microorganisms, corresponding experiments were conducted with Staphylococcus aureus, Candida albicans, Aspergillus brasiliensis, Pseudomonas aeruginosa and Escherichia coli. […] In order to calculate the synergy index with MIC values, the Kull equation was used as follows: […]

Candida albicans = conditions: lowest concentration with complete growth inhibition, optical density, substances solved in DMSO; for MIC: Candida albicans, read-out: MIC in ppm Candida albicans
Description: as §1

Escherichia coli = conditions: lowest concentration with complete growth inhibition, optical density, substances solved in DMSO; for MIC: Escherichia coli, read-out: MIC in ppm Escherichia coli
Description: as §1

Pseudomonas aeruginosa = conditions: lowest concentration with complete growth inhibition, optical density, substances solved in DMSO; for MIC: Pseudomonas aeruginosa, read-out: MIC in ppm Pseudomonas aeruginosa
Description: as §1

Staphylococcus aureus = conditions: lowest concentration with complete growth inhibition, optical density, substances solved in DMSO; for MIC: Staphylococcus aureus, read-out: MIC in ppm Staphylococcus aureus
Description: as §1

Row | MIC (Aspergillus brasiliensis) | MIC (Candida albicans) | MIC (Escherichia coli) | MIC (Pseudomonas aeruginosa) | MIC (Staphylococcus aureus) | MIC in ppm Aspergillus brasiliensis (Aspergillus brasiliensis) | MIC in ppm Candida albicans (Candida albicans) | MIC in ppm Escherichia coli (Escherichia coli) | MIC in ppm Pseudomonas aeruginosa (Pseudomonas aeruginosa) | MIC in ppm Staphylococcus aureus (Staphylococcus aureus) | Compound
1 | 15 mg/mL | 25 mg/mL | 25 mg/mL | 35 mg/mL | 17.5 mg/mL | – | – | – | – | – | CCOC(=O)CCC1(C)OCC(CO)O1 (centres unmarked) [Ethyl glycerine acetal levulinate, ethyl glycerine acetal levulinate]
2 | – | – | – | – | – | 1,000 ppm | 1,000 ppm | 2,500 ppm | 50,000 ppm | 1,000 ppm | CCCCC(CC)COCC(O)CO (centres unmarked) [Ethylhexylglycerin]
3 | – | – | – | – | – | 2,500 ppm | 6,000 ppm | 2,500 ppm | 4,000 ppm | 5,000 ppm | CC(=O)c1ccc(O)cc1 [4-Hydroxyacetophenone]
4 | 17.5 mg/mL | 12.5 mg/mL | 15 mg/mL | 30 mg/mL | 35 mg/mL | – | – | – | – | – | CCCC(O)CO (centres unmarked) [1,2-Pentanediol]
